Test results from patent US20200399222A1, “PICOLINAMIDES AS FUNGICIDES” (Dow AgroSciences LLC, priority 2018, published 2020).
Where two headings read alike, the source gives them in different places.

Columns and labels:
Assay type in all cases: in vivo
Zymoseptoria tritici = assay: Leaf blotch of wheat (SEPTTR) disease control on wheat seedlings; details: High volume application, 100 ppm
Procedure: Example A: Evaluation of Fungicidal Activity: Leaf Blotch of Wheat (Zymoseptoria tritici; Bayer Code […]) Technical grades of materials were dissolved in acetone, which were then mixed with nine volumes of water containing 110 ppm Triton X-100. The fungicide solutions were applied onto wheat seedlings using an automated booth sprayer to run-off. All sprayed plants were allowed to air dry prior to further handling. All fungicides were evaluated using the aforementioned method for their activity vs. all target diseases, unless stated otherwise. Wheat leaf blotch and brown rust activity were also evaluated using track spray applications, in which case the fungicides were formulated as EC formulations, containing 0.1% Trycol 5941 in the spray solutions. Wheat plants (variety Yuma) were grown from seed in a greenhouse in 50% mineral soil/50% soil-less Metro mix until the first leaf was fully emerged, with 7-10 seedlings per pot. These plants were inoculated with an aqueous spore suspension of Zymoseptoria tritici either prior to or after fungicide treatments. After inoculation the plants were kept in 100% relative humidity (one day in a dark dew chamber followed by two to three days in a lighted dew chamber at 20° C.) to permit spores to germinate and infect the leaf. The plants were then transferred to a greenhouse set at 20° C. for disease to develop. When disease symptoms were fully expressed on the 1st leaves of untreated plants, infection levels were assessed on a scale of 0 to 100 percent disease severity. Percent disease control was calculated using the ratio of disease severity on treated plants relative to untreated plants.

Puccinia triticina = assay: Wheat brown rust (PUCCRT) disease control on wheat seedlings; details: High volume application, 100 ppm
Procedure: Technical grades of materials were dissolved in acetone, which were then mixed with nine volumes of water containing 110 ppm Triton X-100. The fungicide solutions were applied onto wheat seedlings using an automated booth sprayer to run-off. All sprayed plants were allowed to air dry prior to further handling. All fungicides were evaluated using the aforementioned method for their activity vs. all target diseases, unless stated otherwise. Wheat leaf blotch and brown rust activity were also evaluated using track spray applications, in which case the fungicides were formulated as EC formulations, containing 0.1% Trycol 5941 in the spray solutions. Example B: Evaluation of Fungicidal Activity: Wheat Brown Rust (Puccinia triticina; Synonym: Puccinia recondita f. sp. tritici; Bayer Code PUCCRT) Wheat plants (variety Yuma) were grown from seed in a greenhouse in 50% mineral soil/50% soil-less Metro mix until the first leaf was fully emerged, with 7-10 seedlings per pot. These plants were inoculated with an aqueous spore suspension of Puccinia triticina either prior to or after fungicide treatments. After inoculation the plants were kept in a dark dew room at 22° C. with 100% relative humidity overnight to permit spores to germinate and infect the leaf. The plants were then transferred to a greenhouse set at 24° C. for disease to develop. Fungicide formulation, application and disease assessment followed the procedures as described in the Example A.

Phakopsora pachyrhizi = assay: Asian soybean rust (PHAKPA) disease control on soybean seedlings; details: Phakopsora pachyrhizi, High volume application at 25 ppm
Procedure: Example C: Evaluation of Fungicidal Activity: Asian Soybean Rust (Phakopsora pachyrhizi; Bayer Code […]) Technical grades of materials were dissolved in acetone, which were then mixed with nine volumes of water containing 0.011% Tween 20. The fungicide solutions were applied onto soybean seedlings using an automated booth sprayer to run-off. All sprayed plants were allowed to air dry prior to further handling. Soybean plants (variety Williams 82) were grown in soil-less Metro mix, with one plant per pot. Two week old seedlings were used for testing. Plants were inoculated either 3 days prior to or 1 day after fungicide treatments. Plants were incubated for 24 h in a dark dew room at 22° C. and 100% relative humidity then transferred to a growth room at 23° C. for disease to develop. Disease severity was assessed on the sprayed leaves.

[1] = 24 h, 1 Day Protectant, read-out: SEPTTR disease control rating, 1DP
[2] = 72 h, 3 Day Curative, read-out: SEPTTR disease control rating, 3DC
[3] = 24 h, 1 Day Protectant, read-out: PUCCRT disease control rating, 1DP
[4] = 72 h, 3 Day Curative, read-out: PUCCRT disease control rating, 3DC
[5] = 24 h, 1 day protectant, read-out: PHAKPA 1DP (1 Day Protectant) disease control
[6] = 72 h, 3 day curative, read-out: PHAKPA 3DC (3 Day Curative) disease control

| Structure (SMILES) | pest or weed control at 100 ppm (Zymoseptoria tritici; [1]) | pest or weed control at 100 ppm (Zymoseptoria tritici; [2]) | pest or weed control at 100 ppm (Puccinia triticina; [3]) | pest or weed control at 100 ppm (Puccinia triticina; [4]) | pest or weed control at 25 ppm (Phakopsora pachyrhizi; [5]) | pest or weed control at 25 ppm (Phakopsora pachyrhizi; [6]) |
| --- | --- | --- | --- | --- | --- | --- |
| COc1ccnc(C(=O)N[C@@H](C)C(=O)OC(C)C(C)c2c(C)cc(F)cc2C)c1O (some centres unmarked) [Example 165] | > 80% | > 80% | > 80% | > 80% | – | – |
| COc1ccnc(C(=O)N[C@@H](C)C(=O)O[C@@H](C)[C@@H](C)c2c(C)cccc2C)c1O [Example 166] | > 80% | > 80% | > 80% | > 80% | – | – |
| COc1ccnc(C(=O)N[C@@H](C)C(=O)O[C@@H](C)[C@@H](C)c2c(C)cc(F)cc2C)c1O [Example 167] | > 80% | > 80% | > 80% | > 80% | – | – |
| COc1ccnc(C(=O)N[C@@H](C)C(=O)O[C@H](C)[C@H](C)c2c(C)cccc2C)c1O [Example 168] | < 80% | > 80% | > 80% | > 80% | – | – |
| COc1ccnc(C(=O)N[C@@H](C)C(=O)O[C@H](C)[C@H](C)c2c(C)cc(F)cc2C)c1O [Example 169] | > 80% | > 80% | > 80% | > 80% | – | – |
| COc1ccccc1[C@H](C)[C@H](C)OC(=O)[C@H](C)NC(=O)c1nccc(OC)c1O [Example 170] | < 80% | < 80% | > 80% | > 80% | – | – |
| COc1ccnc(C(=O)N[C@@H](C)C(=O)O[C@@H](C)[C@@H](C)c2ccccc2)c1O [Example 171] | < 80% | < 80% | > 80% | > 80% | – | – |
| COc1ccnc(C(=O)N[C@@H](C)C(=O)O[C@@H](C)[C@@H](C)c2ccc(C)s2)c1O [Example 172] | < 80% | < 80% | < 80% | > 80% | – | – |
| COc1cc(F)ccc1[C@@H](C)[C@@H](C)OC(=O)[C@H](C)NC(=O)c1nccc(OC)c1O [Example 173] | < 80% | < 80% | > 80% | < 80% | – | – |
| COc1ccnc(C(=O)N[C@@H](C)C(=O)O[C@@H](C)[C@@H](C)c2ccc(N(C)C)cc2)c1O [Example 176] | < 0% | < 80% | > 80% | < 80% | – | – |
| COc1ccnc(C(=O)N[C@@H](C)C(=O)O[C@H](C)[C@@H](C)c2ccc(F)cc2C)c1OC(C)=O [Example 181] | – | – | – | – | < 80% | < 0% |
| COc1ccnc(C(=O)N[C@@H](C)C(=O)O[C@H](C)[C@H](C)c2ccc(F)cc2)c1OC(C)=O [Example 182] | – | – | – | – | < 80% | < 80% |
| COc1ccnc(C(=S)N[C@@H](C)C(=O)O[C@@H](C)[C@@H](C)c2ccccc2C(F)(F)F)c1O [Example 267] | < 80% | < 80% | > 80% | < 80% | – | – |
| COc1ccnc(C(=S)N[C@@H](C)C(=O)O[C@@H](C)[C@@H](C)c2ccc(F)cc2C(F)(F)F)c1O [Example 268] | < 80% | < 80% | > 80% | < 80% | – | – |
| COc1ccnc(C(=S)N[C@@H](C)C(=O)O[C@@H](C)[C@@H](C)C2CCCC2)c1O [Example 269] | < 80% | < 80% | < 80% | > 80% | – | – |
